Data on one substance can be found in US8691522B2, “Composition comprising extracellular membrane vesicles derived from indoor air, and use thereof” (priority 2009, dated 2014).

One experiment deals with C57BL/6 mice. The experiment can be described thus: In vivo acquired immune response to repetitive intranasal Dust-EV with or without PMB. More on the design: species or system mouse. The method, then:
C57BL/6 mice (6 weeks old, female, four in each group) were intranasally administered twice a week for three weeks with 1 μg of indoor dust-derived extracellular vesicles in 30 μl of PBS. In addition, the vesicles were administered together with PMB so as to examine the presence and role of LPS therein. Twenty four hours after injection, clinical analysis was performed.
Moreover, the immunological mechanism associated with the onset of lung inflammation was evaluated. Immune cells were separated from local lymph nodes and analyzed for the expression levels of IFN-γ and IL-17.

Experiment [1] relates to mouse macrophages (RAW 264.7). As to the kind of experiment: In vitro innate immune response: cytokine secretion (ELISA) of macrophages treated with HDM-EV. It is filed as cell-based. Particulars: house dust mite-derived vesicles with Polymyxin B. The method, then: In detail, mouse macrophages (RAW264.7) were seeded at a density of 1×10^5 cells/well into 24 well plates and grown for 24 hours. After the cells were washed with PBS, a fresh DMEM medium was added to the cells which were then incubated for 15 hours with 100 ng, 1 μg and 10 μg of house dust mite-derived extracellular vesicles (HDM-EV). The culture media were harvested and centrifuged at 4° C. and 800×g for 10 min. Cytokines in the supernatant were quantitatively analyzed by enzyme linked immunosorbent assay (ELISA).
A general note: An ELISA detects its analyte on a solid surface through an enzyme-linked reagent.

The test system of experiment [2] is mouse macrophages (RAW 264.7). The experiment can be described thus: In vitro innate immunity: cytokine secretion (ELISA) of macrophages treated with indoor dust-derived vesicles. It is filed as cell-based. The following applies: Dust-EV treated with PMB or heat, vs Dust-EV alone. How it is done: Indoor dust was solubilized in PBS to separate extracellular vesicles and soluble components. The induction of innate immune responses by the vesicles and the water-soluble components was examined in vitro by applying them to mouse macrophages and measuring cytokine levels in the culture media.
In detail, mouse macrophages (RAW264.7) were seeded at a density of 1×10^5 cells/well into 24 well plates and maintained for 24 hours. After the cells were washed with PBS, a fresh DMEM medium was added to the cells which were then incubated for 15 hours with dust-derived extracellular vesicles (Dust-EV, 0.1 μg/ml) and soluble components (Dust-soluble, 8 μg/ml), separately. The culture media were harvested and centrifuged at 4° C. and 800×g for 10 min. Cytokines in the supernatant were quantitatively analyzed by enzyme linked immunosorbent assay (ELISA).
In addition, cytokine levels were measured after the cells were treated with 100 ng/ml and 1 μg/ml of the extracellular vesicles in the same manner as described above.
It is well known that LPS, found in the outer membrane of Gram-negative bacteria, acts as an endotoxin to induce innate immune responses and that it has been detected in indoor dust.

The mark [3] stands for this setting: vesicles in combination with PMB, ELISA.

Turning to Polymyxin B [PMB], in the experiment with C57BL/6 mice (Dust-EV administered together with PMB (Dust-EV+PMB), in contrast to vesicles alone), the “count of inflammatory cells in BAL fluid” value was “low”. In the experiment with C57BL/6 mice (Dust-EV in the presence of PMB), the “count of T cells secreting IFN-γ and IL-17 in local lymph nodes” value is “reduced the count of T cells including those secreting IFN-γ and IL-17 in local lymph nodes”. In the experiment on C57BL/6 mice (setting [3]), the “level of IgG1 specific for indoor dust-derived vesicles in sera” value was “reduced to almost the same as those of the PBS group” and the “level of IgG2a specific for indoor dust-derived vesicles in sera” value is “reduced to almost the same as those of the PBS group”. Moreover, the “vesicle-induced secretion of inflammatory mediators” value in experiment [1] is “suppressed”. Further, in experiment [2], the “vesicle-induced secretion of IL-6” value is recorded as “significantly reduced” and the “vesicle-induced secretion of TNF-α” value is given as “significantly decreased”.
